Assay results from patent publication US20180360705A1, “TOPICAL DELIVERY SYSTEM FOR ACTIVE INREDIENTS” (L'OREAL, priority 2015, published 2018).

Test: Maximum solubility of active ingredient in oils
Type: physicochemical
Settings: room temperature, atmospheric pressure
Experimental: The maximum solubility of the active ingredients in the oil phase can be measured in any way which is known in the art. For example, an excess amount of the active ingredient is dissolved in the oil and mixed vigorously at elevated temperature, and then this sample is cooled down to room temperature and maintained for several hours to days. This mixture is centrifuged to separate an oil phase and the concentration of the active ingredient in the separated oil phase is measured using UV spectroscopy.
In the representative examples of the active ingredients of the present invention, the maximum solubilities of phenylethyl resorcinol and 4-(tetrahydro-2H-pyran-4-yl) benzene-1,3-diol in various oils measured at room temperature and under atmospheric pressure are shown below.

CC(c1ccccc1)c1ccc(O)cc1O (stereo not shown) [Phenylethyl Resorcinol]
maximum solubility in oil (Isododecane): 0.043%
maximum solubility in oil (Isopropyl Lauroyl Sarcosinate): 42%
maximum solubility in oil (Isopropyl Myristate): 36%
maximum solubility in oil (Sesamum Indicum (Sesame) Seed Oil): 23%
